Legend:
[1] = test system: Mus musculus; assay: Toxicity in ip dosed C3H X DBA2 F1 hybrid mouse […] with mouse L1210 cells on day 0 and dosed once daily on days 1 to 5 measured after 50 days; type: organism-based; conditions: in vivo, 1200 h
[2] = Lipophilic-hydrophilic balance, Rm of the compound by partition chromatography; type: physicochemical
[3] = test system: L1210; assay: Antitumor activity against mouse L1210 cells […] in ip dosed C3H X DBA2 F1 hybrid mouse on day 0 and dosed at LD10 level once daily on days 1 to 5 assessed as increase in life span relative to control; type: functional
[4] = test system: L1210; assay: Antitumor activity against mouse L1210 cells […] in ip dosed C3H X DBA2 F1 hybrid mouse on day 0 and dosed once daily on days 1 to 5 assessed as increase in life span relative to control; type: functional

SMILES | LD10 [1] [mg/kg] | Rm [2] | log(ILSmax) [3] | D40 [4] [mg/kg]
CCC[n+]1cccc(NC(=O)c2ccc(NC(=O)c3ccc(C(=O)Nc4ccc(C(=O)Nc5ccc[n+](CCC)c5)cc4)c(N)c3)cc2)c1.Cc1ccc(S(=O)(=O)[O-])cc1.Cc1ccc(S(=O)(=O)[O-])cc1 | 47 | 0.2 | <1.4 | 
CCC[n+]1ccc(-c2ccc(NC(=O)c3ccc(Nc4cc[n+](CCC)c5ccccc45)cc3)cc2)cc1.[Br-].[Br-] | 4.8 | 0.8 | 1.6 | 4.8
C[n+]1cccc2cc(NC(=O)COc3ccc(C(=O)Nc4ccc5c(ccc[n+]5C)c4)cc3)ccc21.Cc1ccc(S(=O)(=O)[O-])cc1.Cc1ccc(S(=O)(=O)[O-])cc1 | 0.6 | -0.3 | <1.4 | 
CCCC[n+]1cccc2cc(NC(=O)/C=C/c3ccc(C(=O)Nc4ccc5c(ccc[n+]5CCCC)c4)cc3)ccc21.Cc1ccc(S(=O)(=O)[O-])cc1.Cc1ccc(S(=O)(=O)[O-])cc1 | 25 | 0.9 | 1.4 | 25
CCC[n+]1cccc(NC(=O)c2ccc(NC(=O)C34CCC(C(=O)Nc5ccc(C(=O)Nc6ccc[n+](CCC)c6)cc5)(CC3)CC4)cc2)c1.Cc1ccc(S(=O)(=O)[O-])cc1.Cc1ccc(S(=O)(=O)[O-])cc1 | 30 | 0.86 | 1.54 | 
CC[n+]1cccc2cc(NC(=O)CCc3ccc(C(=O)Nc4ccc5c(ccc[n+]5CC)c4)cc3)ccc21.Cc1ccc(S(=O)(=O)[O-])cc1.Cc1ccc(S(=O)(=O)[O-])cc1 | 1.6 | 1.1 | <1.4 | 
C[n+]1ccccc1NC(=O)c1ccc(NC(=O)c2ccc(C(=O)Nc3ccc(C(=O)Nc4cccc[n+]4C)cc3)cc2)cc1.Cc1ccc(S(=O)(=O)[O-])cc1.Cc1ccc(S(=O)(=O)[O-])cc1 | 7 | 0.11 | <1.4 | 
C[n+]1cccc2cc(NC(=O)/C=C/c3ccc(C(=O)Nc4ccc5c(ccc[n+]5C)c4)cc3)ccc21.Cc1ccc(S(=O)(=O)[O-])cc1.Cc1ccc(S(=O)(=O)[O-])cc1 | 3 | -0.2 | <1.4 | 
CC[n+]1ccccc1-c1ccc(NC(=O)c2ccc(C(=O)Nc3ccc(-c4cccc[n+]4CC)cc3)cc2)cc1.Cc1ccc(S(=O)(=O)[O-])cc1.Cc1ccc(S(=O)(=O)[O-])cc1 | 10 | 0.26 | <1.4 | 
CC[n+]1ccccc1Nc1ccc(NC(=O)c2ccc(C(=O)Nc3ccc(Nc4cccc[n+]4CC)cc3)cc2)cc1.[I-].[I-] | 16 | 0.53 | <1.4 | 
CC[n+]1cccc2cc(NC(=O)c3ccc(C(=O)Nc4ccc5c(ccc[n+]5CC)c4)cc3)ccc21.Cc1ccc(S(=O)(=O)[O-])cc1.Cc1ccc(S(=O)(=O)[O-])cc1 | 4 | 0.03 | 1.43 | 
C[n+]1cccc2cc(NC(=O)Cc3ccc(CC(=O)Nc4ccc5c(ccc[n+]5C)c4)cc3)ccc21.Cc1ccc(S(=O)(=O)[O-])cc1.Cc1ccc(S(=O)(=O)[O-])cc1 |  | 0.07 |  | 
C[n+]1ccccc1-c1ccc(NC(=O)c2ccc(C(=O)Nc3ccc(-c4cccc[n+]4C)cc3)cc2)cc1.Cc1ccc(S(=O)(=O)[O-])cc1.Cc1ccc(S(=O)(=O)[O-])cc1 | 10 | 0.11 | <1.4 | 
CCC[n+]1ccc(Nc2ccc(NC(=O)c3ccc(Nc4cc[n+](CCC)c5ccccc45)cc3N)cc2N)cc1.[I-].[I-] | 15 | 0.63 | <1.4 | 
CC[n+]1ccc(Nc2ccc(NC(=O)c3ccc(Nc4cc[n+](CC)c5ccccc45)cc3N)cc2N)cc1.[I-].[I-] | 20 | 0.35 | <1.4 | 
CC[n+]1cccc2cc(NC(=O)c3ccc(NC(=O)c4ccc5c(ccc[n+]5CC)c4)cc3)ccc21.Cc1ccc(S(=O)(=O)[O-])cc1.Cc1ccc(S(=O)(=O)[O-])cc1 | 4 | 0.02 | <1.4 | 
CCCC[n+]1cccc2cc(NC(=O)c3ccc(NC(=O)c4ccc5c(ccc[n+]5CCCC)c4)cc3)ccc21.Cc1ccc(S(=O)(=O)[O-])cc1.Cc1ccc(S(=O)(=O)[O-])cc1 | 200 | 0.59 | <1.4 | 
CC[n+]1cccc(NC(=O)c2ccc(NC(=O)c3ccc(C(=O)Nc4ccc[n+](CC)c4)cc3)cc2)c1.Cc1ccc(S(=O)(=O)[O-])cc1.Cc1ccc(S(=O)(=O)[O-])cc1 | 8 | 0.3 | <1.4 | 
C[n+]1cccc2cc(NC(=O)c3ccc(C(=O)Nc4ccc5c(ccc[n+]5C)c4)nc3)ccc21.Cc1ccc(S(=O)(=O)[O-])cc1.Cc1ccc(S(=O)(=O)[O-])cc1 | 4 | -0.4 | <1.4 | 

SMILES | LD10 [1] [mg/kg] | Rm [2] | log(ILSmax) [3] | D40 [4] [mg/kg]
CC[n+]1cccc(NC(=O)c2ccc(NC(=O)c3ccc(C(=O)Nc4ccc(C(=O)Nc5ccc[n+](CC)c5)cc4C)cc3)c(C)c2)c1.Cc1ccc(S(=O)(=O)[O-])cc1.Cc1ccc(S(=O)(=O)[O-])cc1 | 18 | 0.47 | <1.4 | 
CC[n+]1cccc2cc(NC(=O)c3ccc(C(=O)Nc4ccc5c(ccc[n+]5CC)c4)c(N)c3)ccc21.Cc1ccc(S(=O)(=O)[O-])cc1.Cc1ccc(S(=O)(=O)[O-])cc1 | 6 | -0.01 | <1.4 | 
CC[n+]1ccc(Nc2ccc(NC(=O)CCCCCC(=O)Nc3ccc(Nc4cc[n+](CC)cc4)cc3)cc2)cc1.[O-][Cl+3]([O-])([O-])[O-].[O-][Cl+3]([O-])([O-])[O-] | 20 | 0.69 | <1.4 | 
CCC[n+]1cccc(NC(=O)c2ccc(NC(=O)c3ccc(C(=O)Nc4ccc(C(=O)Nc5ccc[n+](CCC)c5)cc4)c(Cl)c3)cc2)c1.Cc1ccc(S(=O)(=O)[O-])cc1.Cc1ccc(S(=O)(=O)[O-])cc1 | 40 | 0.75 | <1.4 | 
CC[n+]1ccccc1NC(=O)c1ccc(NC(=O)c2ccc(C(=O)Nc3ccc(C(=O)Nc4cccc[n+]4CC)cc3)cc2)cc1.Cc1ccc(S(=O)(=O)[O-])cc1.Cc1ccc(S(=O)(=O)[O-])cc1 | 13 | 0.57 | <1.4 | 
CCCCCC[n+]1cccc2cc(NC(=O)c3ccc(C(=O)Nc4ccc5c(ccc[n+]5CCCCCC)c4)cc3)ccc21.Cc1ccc(S(=O)(=O)[O-])cc1.Cc1ccc(S(=O)(=O)[O-])cc1 | 27 | 1.03 | <1.4 | 
CCC[n+]1cccc(NC(=O)c2ccc(NC(=O)c3ccc(C(=O)Nc4ccc(C(=O)Nc5ccc[n+](CCC)c5)cc4)c(C)c3)cc2)c1.Cc1ccc(S(=O)(=O)[O-])cc1.Cc1ccc(S(=O)(=O)[O-])cc1 | 30 | 0.75 | <1.4 | 
CCC[n+]1ccccc1NC(=O)c1ccc(NC(=O)c2ccc(C(=O)Nc3ccc(C(=O)Nc4cccc[n+]4CCC)cc3)cc2)cc1.Cc1ccc(S(=O)(=O)[O-])cc1.Cc1ccc(S(=O)(=O)[O-])cc1 | 100 | 0.73 | <1.4 | 
CC(=NNC(=N)N)c1ccc(NC(=O)c2ccc(C(=O)Nc3ccc(Nc4cc[n+](C)cc4)cc3)cc2)cc1.Cc1ccc(S(=O)(=O)O)cc1.Cc1ccc(S(=O)(=O)[O-])cc1 |  | -0.15 |  | 
CCC[n+]1cccc2cc(NC(=O)CCc3ccc(C(=O)Nc4ccc5c(ccc[n+]5CCC)c4)cc3)ccc21.Cc1ccc(S(=O)(=O)[O-])cc1.Cc1ccc(S(=O)(=O)[O-])cc1 | 2 | 1.25 | <1.4 | 
C[n+]1cccc2cc(NC(=O)CCc3ccc(C(=O)Nc4ccc5c(ccc[n+]5C)c4)cc3)ccc21.Cc1ccc(S(=O)(=O)[O-])cc1.Cc1ccc(S(=O)(=O)[O-])cc1 | 270 | 0.85 | <1.4 | 
CCC[n+]1cccc(NC(=O)c2ccc(NC(=O)c3ccc(C(=O)Nc4ccc[n+](CCC)c4)cc3)cc2)c1.Cc1ccc(S(=O)(=O)[O-])cc1.Cc1ccc(S(=O)(=O)[O-])cc1 | 15 | 0.65 | <1.4 | 
CCCCC[n+]1cccc2cc(NC(=O)c3ccc(C(=O)Nc4ccc5c(ccc[n+]5CCCCC)c4)nc3)ccc21.Cc1ccc(S(=O)(=O)[O-])cc1.Cc1ccc(S(=O)(=O)[O-])cc1 | 250 | 0.6 | <1.4 | 
CCC[n+]1ccccc1Nc1ccc(NC(=O)c2ccc(C(=O)Nc3ccc(Nc4cccc[n+]4CCC)cc3)cc2)cc1.Cc1ccc(S(=O)(=O)[O-])cc1.Cc1ccc(S(=O)(=O)[O-])cc1 | 100 | 0.71 | <1.4 | 
CCOCC[n+]1cccc2cc(NC(=O)c3ccc(C(=O)Nc4ccc5c(ccc[n+]5CCOCC)c4)cc3)ccc21.Cc1ccc(S(=O)(=O)[O-])cc1.Cc1ccc(S(=O)(=O)[O-])cc1 | 20 | 0.8 | <1.4 | 
CC[n+]1ccc(Nc2ccc(NC(=O)CCCCCCC(=O)Nc3ccc(Nc4cc[n+](CC)cc4)cc3)cc2)cc1.[Br-].[Br-] | 10 | 0.83 | <1.4 | 
CCCC[n+]1cccc2cc(NC(=O)Cc3ccc(CC(=O)Nc4ccc5c(ccc[n+]5CCCC)c4)cc3)ccc21.Cc1ccc(S(=O)(=O)[O-])cc1.Cc1ccc(S(=O)(=O)[O-])cc1 |  | 0.92 |  | 
C[n+]1cccc2cc(NC(=O)c3ccc(C(=O)Nc4ccc5c(ccc[n+]5C)c4)cc3)ccc21.Cc1ccc(S(=O)(=O)[O-])cc1.Cc1ccc(S(=O)(=O)[O-])cc1 | 5 | -0.21 | <1.4 | 
CCC[n+]1ccc(Nc2ccc(NC(=O)c3ccc(Nc4cc[n+](CCC)c5ccccc45)cc3)cc2N)cc1.[I-].[I-] | 4.4 | 0.76 | 1.43 | 

Source: ChEMBL document CHEMBL3228010, “Potential antitumor agents. 29. Quantitative structure-activity relationships for the antileukemic bisquaternary ammonium heterocycles” (J Med Chem, 1979)
